Results taken from the NIST ThermoML archive (doi:10.1016/j.jct.2011.10.023).

Conditions: Liquid, Vibrating tube method

CCCCCCCCCCCO [1-undecanol]
mass density [kg/m3]
Conditions	298.15 K	308.15 K	318.15 K	328.15 K	338.15 K	348.15 K	358.15 K
100 kPa	827.7	820.9	814.1	807.4	800.5	793.3	786
1000 kPa	828.2	821.5	814.7	808	801.1	793.8	786.8
5000 kPa	830.7	824	817.4	810.8	803.9	797.1	790
10000 kPa	833.6	827.1	820.6	814.1	807.3	800.8	793.9
15000 kPa	836.4	830	823.7	817.3	810.6	804.3	797.6
20000 kPa	839.2	832.9	826.6	820.4	813.8	807.6	801.1
25000 kPa	841.8	835.6	829.5	823.3	816.9	810.8	804.4
30000 kPa	844.4	838.3	832.3	826.2	819.9	813.9	807.7
35000 kPa	846.9	840.9	834.8	829	822.8	816.9	810.8
40000 kPa	849.4	843.4	837.6	831.7	825.6	819.9	813.9
45000 kPa	851.8	845.9	840.1	834.4	828.4	822.7	816.6
50000 kPa	854.2	848.3	842.6	837	831	825.5	819.6
55000 kPa	856.5	850.7	845.1	839.5	833.6	828.1	822.4
60000 kPa	858.7	852.9	847.3	841.8	836	830.7	824.9

CCCCCCCCCO [nonan-1-ol]
mass density [kg/m3]
Conditions	278.15 K	288.15 K	298.15 K	308.15 K	318.15 K	328.15 K	338.15 K	348.15 K	358.15 K
100 kPa	836.9	829.9	823.2	816.5	809.8	802.8	795.7	788.3	780.9
1000 kPa	837.4	830.5	823.7	817.1	810.4	803.4	796.4	788.9	781.6
5000 kPa	839.7	832.7	826.3	819.8	813.2	806.3	799.4	792.3	785
10000 kPa	842.5	835.9	829.4	822.9	816.5	809.8	803	796.1	789
15000 kPa	845.1	838.7	832.3	826	819.7	813.1	806.5	799.7	792.9
20000 kPa	847.8	841.4	835.1	828.9	822.7	816.3	809.8	803.2	796.5
25000 kPa	850.3	844	837.9	831.8	825.6	819.3	813	806.6	799.9
30000 kPa	852.8	846.6	840.5	834.5	828.5	822.3	816.1	809.8	803.3
35000 kPa	855.3	849.1	843.1	837.2	831.3	825.2	819.1	812.9	806.6
40000 kPa	857.6	851.6	845.7	839.8	834	828	822	815.9	809.7
45000 kPa	859.9	854	848.1	842.4	836.6	830.7	824.8	818.8	812.8
50000 kPa	862.2	856.3	850.5	844.8	839.2	833.4	827.6	821.6	815.7
55000 kPa	864.4	858.6	852.9	847.3	841.7	836	830.2	824.4	818.6
60000 kPa	866.4	860.7	855	849.3	844	838.3	832.7	826.7	821.2

CCCCCO [pentan-1-ol]
mass density [kg/m3]
Conditions	278.15 K	288.15 K	298.15 K	308.15 K	318.15 K	328.15 K	338.15 K	348.15 K	358.15 K
100 kPa	825.2	818	810.7	803.3	795.8	788.2	780.3	772.3	763.8
1000 kPa	825.8	818.7	811.3	804	796.6	789	781.2	773.1	764.8
5000 kPa	828.5	821.5	814.2	807	799.8	792.3	784.8	776.9	768.8
10000 kPa	831.6	824.8	817.7	810.7	803.6	796.3	788.9	781.2	773.5
15000 kPa	834.7	828	821	814	807.2	800.1	792.9	785.5	777.9
20000 kPa	837.6	831.1	824.3	817.5	810.7	803.8	796.7	789.5	782.1
25000 kPa	840.4	834	827.3	820.7	814	807.2	800.3	793.3	786.1
30000 kPa	843.2	836.9	830.3	823.8	817.3	810.6	803.8	796.9	789.9
35000 kPa	845.9	839.7	833.2	826.8	820.4	813.8	807.2	800.4	793.6
40000 kPa	848.6	842.4	836	829.7	823.4	817	810.5	803.8	797.1
45000 kPa	851.1	845	838.7	832.5	826.3	820	813.6	807.1	800.5
50000 kPa	853.6	847.6	841.4	835.3	829.1	822.9	816.6	810.3	803.8
55000 kPa	856.1	850.1	844	838	831.9	825.8	819.6	813.3	807
60000 kPa	858.4	852.5	846.4	840.4	834.6	828.4	822.5	816.2	810
